Test [1] deals with T1, Met kinase (Homo sapiens, UniProt P08581). As to the kind of experiment: Met kinase inhibition, cell assay. The test is classed as cell-based.
Test [2] addresses T1, Met kinase. Briefly: Met kinase inhibition, enzyme assay (flashplate method). The class given is biochemical. More on the design: 6His (N); purchased Upstate 14-526; host or cells: Sf21 insect cells (S. frugiperda), baculovirus. The source says:
According to the manufacturer's data (Met, active, upstate, catalogue No. 14-526), Met kinase is expressed for the purposes of protein production in insect cells (Sf21; S. frugiperda) and subsequent affinity-chromatographic purification as “N-terminal 6His-tagged” recombinant human protein in a baculovirus expression vector.
The test plates used are 96-well Flashplate® microtitre plates from Perkin Elmer (Cat. No. SMP200). The components of the kinase reaction described below are pipetted into the assay plate. The Met kinase and the substrate poly Ala-Glu-Lys-Tyr, (pAGLT, 6:2:5:1), are incubated for 3 hrs at room temperature with radioactively labelled ^33P-ATP in the presence and absence of test substances in a total volume of 100 μl. The reaction is terminated using 150 μl of a 60 mM EDTA solution. After incubation for a further 30 min at room temperature, the supernatants are filtered off with suction, and the wells are washed three times with 200 μl of 0.9% NaCl solution each time. The measurement of the bound radioactivity is carried out by means of a scintillation measuring instrument (Topcount NXT, Perkin-Elmer).
The full value used is the inhibitor-free kinase reaction. This should be approximately in the range 6000-9000 cpm. The pharmacological zero value used is staurosporin in a final concentration of 0.1 mM. The inhibitory values (IC50) are determined using the RS1_MTS program.
Kinase Reaction Conditions Per Well:
10 μl of substance to be tested in assay buffer with 10% of DMSO
10 μl of ATP (final concentration 1 μM cold, 0.35 μCi of ^33P-ATP)
50 μl of Met kinase/substrate mixture in assay buffer; • (10 ng of enzyme/well, 50 ng of pAGLT/well) • Solutions Used: • Assay buffer: • 50 mM HEPES • 3 mM magnesium chloride • 3 μM sodium orthovanadate • 3 mM manganese(II) chloride • 1 mM dithiothreitol (DTT) • pH=7.5 (to be set using sodium hydroxide) • Stop Solution: • 60 mM Titriplex III (EDTA) • ^33P-ATP: Perkin-Elmer; • Met kinase: Upstate, Cat. No. 14-526, Stock 1 μg/10 μl; spec. activity 954 U/mg; • Poly-Ala-Glu-Lys-Tyr, 6:2:5:1: Sigma Cat. No. P1152

The subject of test [3] is TPR-Met/NIH3T3 cells. Briefly: In-vivo test, TPR-Met/NIH3T3 tumor model in mice. Particulars: female Balb/C mice, s.c. TPR-Met/NIH3T3 tumors, 200 mg/kg daily by gastric tube, 9 days, tumor volume. As to the method:
Experimental Procedure: Female Balb/C mice (breeder: Charles River Wiga) were 5 weeks old on arrival. They were acclimatized to our keeping conditions for 7 days. Each mouse was subsequently injected subcutaneously in the pelvic area with 4 million TPR-Met/NIH3T3 cells in 100 μl of PBS (without Ca++ and Mg++). […] 100 μl of vehicle (0.25% methylcellulose/100 mM acetate buffer, pH 5.5) were administered daily to the control group, and 200 mg/kg of “A56” or “A91” dissolved in the vehicle (volume likewise 100 μl/animal) were administered daily to the treatment groups, in each case by gastric tube.
Measurement of the tumor volume: The length (L) and breadth (B) were measured using a Vernier calliper, and the tumor volume was calculated from the formula L×B×B/2.
Keeping conditions: 4 or 5 animals per cage, feeding with commercial mouse food (Sniff).

Where a name gives a salt, the structure may show the parent alone. Some results are limits rather than exact numbers.

For orientation: IC50 means the concentration that inhibits the measured activity by half. A low value points to greater potency.

T1 sequence (P08581 25-1390): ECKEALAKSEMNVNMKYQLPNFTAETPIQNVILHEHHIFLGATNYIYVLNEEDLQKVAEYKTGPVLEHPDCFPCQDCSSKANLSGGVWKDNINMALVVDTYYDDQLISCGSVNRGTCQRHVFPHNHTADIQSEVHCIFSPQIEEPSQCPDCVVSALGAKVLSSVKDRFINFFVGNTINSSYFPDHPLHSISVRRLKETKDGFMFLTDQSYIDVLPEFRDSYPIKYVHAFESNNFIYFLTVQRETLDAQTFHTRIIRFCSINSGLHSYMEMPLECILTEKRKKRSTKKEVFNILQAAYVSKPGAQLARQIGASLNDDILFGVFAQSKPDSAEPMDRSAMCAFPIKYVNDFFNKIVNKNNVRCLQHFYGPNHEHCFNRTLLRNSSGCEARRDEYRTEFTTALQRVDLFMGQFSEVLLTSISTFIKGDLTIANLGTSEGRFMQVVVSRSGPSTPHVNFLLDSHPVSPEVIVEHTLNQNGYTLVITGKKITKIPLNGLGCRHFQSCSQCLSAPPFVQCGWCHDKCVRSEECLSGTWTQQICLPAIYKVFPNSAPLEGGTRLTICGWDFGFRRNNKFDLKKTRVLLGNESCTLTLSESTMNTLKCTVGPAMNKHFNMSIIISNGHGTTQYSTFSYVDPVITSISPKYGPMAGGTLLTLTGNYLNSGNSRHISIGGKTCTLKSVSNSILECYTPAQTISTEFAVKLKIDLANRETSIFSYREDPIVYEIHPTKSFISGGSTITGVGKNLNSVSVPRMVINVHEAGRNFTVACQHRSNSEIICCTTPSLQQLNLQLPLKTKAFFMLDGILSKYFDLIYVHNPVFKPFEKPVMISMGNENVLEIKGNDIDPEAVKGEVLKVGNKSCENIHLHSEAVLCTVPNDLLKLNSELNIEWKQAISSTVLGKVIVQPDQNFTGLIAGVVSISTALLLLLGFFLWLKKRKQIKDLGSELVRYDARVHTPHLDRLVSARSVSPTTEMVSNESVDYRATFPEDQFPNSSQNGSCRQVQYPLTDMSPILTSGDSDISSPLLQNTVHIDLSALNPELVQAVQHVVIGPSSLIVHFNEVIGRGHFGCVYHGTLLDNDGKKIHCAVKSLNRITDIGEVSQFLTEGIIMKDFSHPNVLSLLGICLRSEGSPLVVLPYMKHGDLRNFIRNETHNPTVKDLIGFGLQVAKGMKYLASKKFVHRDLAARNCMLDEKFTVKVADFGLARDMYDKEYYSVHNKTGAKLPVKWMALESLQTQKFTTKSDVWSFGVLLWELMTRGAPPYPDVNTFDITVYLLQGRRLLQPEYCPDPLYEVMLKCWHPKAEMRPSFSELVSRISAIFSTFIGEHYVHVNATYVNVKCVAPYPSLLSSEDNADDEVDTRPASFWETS

As to `O=c1ccc(C2CC2)nn1Cc1cccc(-c2ncc(Br)cn2)c1` [Compound A1, 2-[3-(5-bromopyrimidin-2-yl)benzyl]-6-cyclopropyl-2H-pyridazin-3-one], the results for the half-maximal inhibitory concentration (IC50) in test [1] and in test [2] were 100 to 10000 nM and 1 to 100 nM, respectively.
For the compound `O=c1ccc(C2CC2)nn1Cc1cccc(-c2ncc(-c3cnn(CCN4CCCC4)c3)cn2)c1` [Compound A2, 6-cyclopropyl-2-(3-{5-[1-(2-pyrrolidin-1-ylethyl)-1H-pyrazol-4-yl]pyrimidin-2-yl}benzyl)-2H-pyridazin-3-one], the IC50 in test [1] and in test [2] was 1 to 100 nM in each case.
Regarding `O=c1ccc(C2CC2)nn1Cc1cccc(-c2ncc(-c3cnn(CCN4CCOCC4)c3)cn2)c1` [Compound A3, 6-cyclopropyl-2-(3-{5-[1-(2-morpholin-4-ylethyl)-1H-pyrazol-4-yl]-pyrimidin-2-yl}benzyl)-2H-pyridazin-3-one], the concentration for half-maximal inhibition (IC50) in test [1] and in test [2] was 1 to 100 nM each time.
As to `Cc1cnc(-c2cccc(Cn3nc(C4CC4)ccc3=O)c2)nc1` [Compound A4, 6-cyclopropyl-2-[3-(5-methylpyrimidin-2-yl)benzyl]-2H-pyridazin-3-one], the 50% inhibitory concentration (IC50) in test [1] lay within 100 to 10000 nM; in test [2], 1 to 100 nM.
Taken in the same sequence, the figures for `O=c1ccc(C2CC2)nn1Cc1cccc(-c2ncc(-c3cnn(C4CCNCC4)c3)cn2)c1` [Compound A5, 6-cyclopropyl-2-{3-[5-(1-piperidin-4-yl-1H-pyrazol-4-yl)-pyrimidin-2-yl]benzyl}-2H-pyridazin-3-one] were 1 to 100 nM and 1 to 100 nM.
Taken in the same sequence, the figures for `Cc1ccc(=O)n(Cc2cccc(-c3ncc(-c4cnn(C5CCNCC5)c4)cn3)c2)n1` [Compound A6, 6-methyl-2-{3-[5-(1-piperidin-4-yl-1H-pyrazol-4-yl)pyrimidin-2-yl]benzl}-2H-pyridazin-3-one] were 100 to 10000 nM and 1 to 100 nM.
Taken in the same sequence, the figures for `Cc1nc(-c2cccc(Cn3nc(C4CC4)ccc3=O)c2)no1` [Compound A7, 6-cyclopropyl-2-[3-(5-methyl-1,2,4-oxadiazol-3-yl)benzyl]-2H-pyridazin-3-one] were over 10000 nM and 100 to 10000 nM.
For `CN(C)CCCOc1cnc(-c2cccc(Cn3nc(C4CC4)ccc3=O)c2)nc1` [Compound A8, 6-cyclopropyl-2-{3-[5-(3-dimethylaminopropoxy)pyrimidin-2-yl]benzyl}-2H-pyridazin-3-one], the IC50 in test [1] and in test [2] was 1 to 100 nM in each case.
Take `CN1CCC(Oc2cnc(-c3cccc(Cn4nc(C5CC5)ccc4=O)c3)nc2)CC1` [Compound A9, 6-cyclopropyl-2-{3-[5-(1-methylpiperidin-4-yloxy)pyrimidin-2-yl]benzyl}-2H-pyridazin-3-one]: the half-maximal inhibitory concentration (IC50) in test [1] and in test [2] was 1 to 100 nM each time.
For the compound `CC(C)c1ccc(=O)n(Cc2cccc(-c3ncc(OCCCN(C)C)cn3)c2)n1` [Compound A10, 2-{3-[5-(3-dimethylaminopropoxy)pyrimidin-2-yl]benzyl}-6-isopropyl-2H-pyridazin-3-one formate], the half-maximal inhibitory concentration (IC50) in test [1] was in the range of 100 to 10000 nM; in test [2] it was 1 to 100 nM.
Taken in the same sequence, the figures for `O=c1ccc(C2CC2)nn1Cc1cccc(-c2ncc(OC3CCNCC3)cn2)c1` [Compound A11, 6-cyclopropyl-2-{3-[5-(piperidin-4-yloxy)pyrimidin-2-yl]benzyl}-2H-pyridazin-3-one] were 100 to 10000 nM and 1 to 100 nM.
For `CN1CCN(c2cnc(-c3cccc(Cn4nc(C5CC5)ccc4=O)c3)nc2)CC1` [Compound A12, 6-cyclopropyl-2-{3-[5-(4-methylpiperazin-1-yl)pyrimidin-2-yl]benzyl}-2H-pyridazin-3-one] the same measures were 1 to 100 nM and 1 to 100 nM.
Taken in the same sequence, the figures for `CC(C)c1ccc(=O)n(Cc2cccc(-c3ncc(-c4cnn(CCN5CCOCC5)c4)cn3)c2)n1` [Compound A13, 6-isopropyl-2-(3-{5-[1-(2-morpholin-4-ylethyl)-1H-pyrazol-4-yl]pyrimidin-2-yl}benzyl)-2H-pyridazin-3-one] were 100 to 10000 nM and 1 to 100 nM.
Consider `O=c1cccnn1Cc1cccc(-c2ncc(-c3cnn(CCN4CCOCC4)c3)cn2)c1` [Compound A14, 2-(3-{5-[1-(2-morpholin-4-ylethyl)-1H-pyrazol-4-yl]pyrimidin-2-yl}benzyl)-2H-pyridazin-3-one], for which the IC50 was in the range of 100 to 10000 nM in test [1] and 1 to 100 nM in test [2].
Take `O=c1ccc(C2CCC2)nn1Cc1cccc(-c2ncc(-c3cnn(CCN4CCCC4)c3)cn2)c1` [Compound A15, 6-cyclobutyl-2-(3-{5-[1-(2-pyrrolidin-1-ylethyl)-1H-pyrazol-4-yl]pyrimidin-2-yl}benzyl)-2H-pyridazin-3-one]: the IC50 in test [1] and in test [2] was 1 to 100 nM throughout.
As to `Nc1cnc(-c2cccc(Cn3nc(C4CC4)ccc3=O)c2)nc1` [Compound A18, 2-[3-(5-aminopyrimidin-2-yl)benzyl]-6-cyclopropyl-2H-pyridazin-3-one], the IC50 in test [1] and in test [2] was 100 to 10000 nM in each case. Also, the antitumoral action entry in test [3] is given as “significant antitumoral action”.

Source of the values: patent US8557813B2, “2-benzylpyridazinone derivatives as met kinase inhibitors” (Merck Patent GmbH, priority 2007, dated 2013).
